Data: patent publication US20130158111A1, “Compositions and Methods for Depleting Mutant p53” (Georgetown University, priority 2011, published 2013)

Tests used:
[1] = molecular target: T1, mutant p53 protein in H596 (G245C) non-small-cell lung cancer cells (Homo sapiens, UniProt P04637, G245C); test: Immunoblot of mutant p53 protein in H596 cells; assay type: cell-based
T1 construct: host or cells: H596
Source text: (§1) Human H596, A549, HCT116, MDA-MB-231, MDA-MB-468, MCF-7, DU145, MCF-10A, SW480, and SCC-4 cells were obtained from ATCC (Manassas, Va.). H1299-175H cells were kindly provided by Dr. Maria Laura Avantaggiati (Georgetown University). Cells were maintained in DMEM or RPMI-1640 medium supplemented with 10% FBS (Hyclone). […] 2,2-Diphenylethyl ITC, 4-phenoxybenzyl ITC, 4-methoxybenzyl ITC, 4-chlorobenzyl ITC, Dα-methylbenzyl ITC, trityl ITC, and 3-phenylpropyl ITC were purchased from Trans World Chemicals (Rockville, Md.). Erucin and 4-phenylbutyl ITC were from LKT Laboratories, Inc. (St. Paul, Minn.). […] The p53 DO-1 and β-actin antibodies were purchased from Santa Cruz Biotechnology (Santa Cruz, Calif.), horseradish peroxidase-labeled goat antimouse secondary antibodies were purchased from GE-Healthcare (Pittsburgh, Pa.), and Bio-Rad Protein Assay was from Bio-Rad (Hercules, Calif.).
(§2) Whole cell lysates were prepared in lysis buffer (20 mM HEPES, pH 7.4, 2 mM EGTA, 50 mM β-glycerol phosphate, 1% Triton X-100, 10% glycerol, 1 mM DTT, 1 mM PMSF, […], 1 mM Na3-VO4, and 5 mM NaF). For immunoblot analysis, equal amounts of protein were resolved on 4-12% NuPAGE BisTris gels (Invitrogen) and transferred to PVDF membranes (Millipore). The membranes were blocked with 5% milk in TBST and were then probed with p53 (DO-1) or β-actin antibody. Proteins were detected using enhanced chemiluminescence (ECL) reagents (GE Healthcare).

[2] = molecular target: T2, mutant p53 in MDA-MB-231 breast cancer cells (Homo sapiens, UniProt P04637, R280K); test: Immunoblot of mutant p53 in MDA-MB-231 cells treated with ITCs; assay type: cell-based; settings: MDA-MB-231, 10 μM ITCs, 24 h, compared with DMSO control
T2 construct: host or cells: MDA-MB-231
Source text: as §1, §2

[3] = system: A549, H596, MCF-7, MDA-MB-231, MDA-MB-468, HCT116 and SW480 cells; test: Caspase-3 colorimetric activity assay (apoptosis), mutant vs wild-type p53 cells; assay type: cell-based, Human; settings: PEITC 24 h; lung, breast and colon cell line sets
Protocol: Caspase-3 activity was measured by detection of the cleavage of a colorimetric caspase-3 substrate, N-acetyl-Asp-Glu-Val-Asp (DEVD)-p-nitroaniline, using an assay kit (R&D Systems, Inc., Minneapolis, Minn.). The assay was performed according to the instructions of the manufacturer. In brief, cells were treated with drugs for 24 h. The cells were collected and lysed in ice-cold lysis buffer provided by the manufacturer. The same amount of protein extracts (100-200 μg) were incubated in a reaction buffer containing N-acetyl-DEVD-p-nitroaniline at 37 gC for 2-4 h. The levels of the resulting proteolytic fragment p-nitroanilide were measured as optical density at 405 nm with a plate reader. The data represent the mean±SD of three independent experiments.
The role of p53 in the induction of apoptosis by ITCs is not well established and likely to be cell-specific. […] To examine this possibility, we assessed the cytotoxicity induced by PEITC in cancer cells containing either wild-type or mutant p53. Three sets of cell lines from lung, breast, and colon were used: A549 (wild-type p53) and H596 (mutant p53) lung cancer cells, MCF-7 (wild-type p53) and MDA-MB-231 and MDA-MB-468 (mutant p53) breast cancer cells, and HCT116 (wild-type p53) and SW480 (mutant p53) colon cancer cells. After treating with PEITC for 24 h, apoptosis was determined by caspase-3 activity assay.

[4] = system: LNCap (wild-type p53) xenograft tumors; test: Xenograft model, LNCap tumors, PEITC diet; assay type: in vivo, BALB/C nu/nu transgenic mice
Protocol: Briefly, 30 BALB/C nu/nu transgenic mice (purchased from Charles River) were randomized into two groups, and fed with powder diet AlN93 (purchased from Research Diets, Inc.) with or without addition of 5 μM PEITC compound (purchased from Sigma-Aldrich). After two weeks of feeding, two xenograft tumors each carrying […] in a volume of 100 μL were established by injection into both flanks of a mouse. Mice were continuously fed with diets with or without PEITC for additional 8 weeks before sacrifice. Diet intake and tumor volume were measured twice every week. Tumors were harvested at the end of bioassay for immunohistochemistry and immunoblot studies. […] Immunohistochemistry assays were carried out to examine the apoptotic markers, such as TUNEL, and anti-proliferation marker Ki67 in tumors from the PEITC-treated vs. untreated mice. This study provides the first in vivo evidence that mutant p53 can be depleted in tumors of mice fed PEITC-containing diet and its depletion seems to correlate with growth inhibition in the mutant p53 tumors.

mda-mb-231 (R280K) cells = test: Cell proliferation, mda-mb-231; assay type: cell-based, Human
Protocol: Next, the effect of PEITC exposure on tumor growth of the tumor cell lines expressing mutant or the WT p53 protein was examined. […] This hypersensitivity to PEITC being mediated through mutant p53 was next examined. The effect of PEITC on mda-mb-231 cells depleted of mutant p53 by >90% was compared to non-specific (NS) siRNA transfected cells as a control (FIG. 9B). […] Further the effect of PEITC treatment on the level of mutant p53 protein at lower doses was analyzed by western blot analysis (FIG. 9D).

DU145 cells = test: Apoptosis and cell cycle progression, DU145; assay type: cell-based, Human; settings: DU145, 4 uM PEITC
Source text: The negative effects of PEITC on cell proliferation might affect the apoptotic potential of the cells and the cell cycle progression.

[5] = molecular target: T3, p53R175H mutant protein in SK-BR-3 cells (Homo sapiens, UniProt P04637, R175H); test: Immunofluorescence with conformation specific antibodies (PAB240, PAB1620); assay type: cell-based; settings: SK-BR-3, PEITC 4 hrs vs DMSO
T3 construct: endogenous in cells; host or cells: SK-BR-3
Protocol: To determine if the induction of apoptosis is due to the restoration of WT conformation to the mutant p53 protein, immunoflourescence analysis was performed. SK-BR-3 cells expressing p53R175H mutant protein were treated with PEITC or DMSO as a control for 4 hrs. Cells were stained with the conformation specific antibody (PAB240) that recognizes the mutant p53 or antibody specific for the WT p53 protein (PAB1620).

S=C=NCCc1ccccc1 [PEITC, phenethyl isothiocyanate]
mutant p53 protein level ([1]; H596 (G245C), 15 μM PEITC, immunoblot): rapid depletion
earliest time at which depletion of mutant p53 occurred ([1]; H596, 15 μM PEITC): 2 h
time at which depletion of mutant p53 peaked ([1]; H596, 15 μM PEITC, sustained during 24 h treatment): 4 h
depletion of mutant p53 at equimolar concentrations ([1]; H596, 20 μM ITCs, 24 h, compared with DMSO control): approximately the same extent
depletion of mutant p53 at equimolar concentrations [2]: approximately the same extent
sensitivity of mutant p53 cancer cells vs wild-type cells to PEITC-induced apoptosis (caspase-3 activity) [3]: significantly more sensitive
p53 level in tumors detected by immunoblot ([4]; LNCap tumors, PEITC diet): not in LNCap tumors
tumor volume ([4]; LNCap xenograft, diet with 5 μM PEITC vs diet without PEITC, 8 weeks): significantly decreased
inhibition at 1 µM (mda-mb-231 (R280K) cells; Homo sapiens, mda-mb-231 (R280K), 1 μM PEITC): 55%
sensitivity to cell growth inhibition (mda-mb-231 (R280K) cells; control (NS) siRNA transfected mda-mb-231 cells): highly sensitive
sensitivity to cell growth inhibition (mda-mb-231 (R280K) cells; mda-mb-231 cells depleted of mutant p53 by >90% (siRNA)): significant reduction in the sensitivity
apoptosis compared to DMSO treated cells (DU145 cells): two fold increase
cell cycle progression (DU145 cells): S-phase arrest
conformation of p53R175H mutant (PAB1620 staining) [5]: induced conformation change
